From PMC11125126, “Synthesis, Characterisation, and In Vitro Evaluation of Biocompatibility, Antibacterial and Antitumor Activity of Imidazolium Ionic Liquids” (Pharmaceutics, 2024)
Read-outs that look alike come from different tables or passages of the source.

Experiments:
[1] = system: Escherichia coli; assay: MIC/MBC by broth dilution, pure ILs; assay type: cell-based; details: 24 h
Description: (§1) Within the Di3A (Dipartimento di Agricoltura, Alimentazione e Ambiente, University of Catania, Italy) microbial collection, two Gram-negative strains (Escherichia coli and Pseudomonas fluorescens) and one Gram-positive strain (Listeria monocytogenes) were studied in order to define the potential efficacy of ionic liquids in relation to the different structure of the bacterial cell wall.
(§2) For the pure ILs, the minimal inhibitory concentration (MIC) and minimal bactericidal concentration (MBC) were determined in Nutrient Broth (NB, Oxoid, Basingstoke, UK) medium by broth dilution method, according to the Clinical and Laboratory Standards Institute (CLSI).
(§3) All the bacterial strains were individually grown for 24 h at 35 or 27 °C for P. fluorescens, with shaking. After the incubation period, the cells were collected by centrifugation and re-suspended in sterile NB to obtain a stock culture of 10^9 CFU/mL.
(§4) Tubes containing 5 mL of NB with decreasing concentrations of ILs (1000, 500, 250, 125, 50, 25, 12.5, 5 and 0 µg/mL) were inoculated with each bacterial stock culture at a final concentration of 10^6 CFU/mL.
(§5) Tubes were incubated at 35 or 27 °C in an orbital shaker and evaluated for the viable count of E. coli, P. fluorescens, and L. monocytogenes after 24 h by spread-plating 100 µL of each suspension on Nutrient Agar (NA, Oxoid, Basingstoke, UK) incubated for 24–48 h at 35 or 27 °C.
(§6) In this study, MIC and MBC are expressed in both µg/mL and µM to make the comparison with the literature data easy. Each experiment was performed in triplicate.

[2] = system: Listeria monocytogenes; assay: MIC/MBC by broth dilution, pure ILs; assay type: cell-based; details: 24 h
Description: as §1, §2, §3, §4, §5, §6

[3] = system: Pseudomonas fluorescens; assay: MIC/MBC by broth dilution, pure ILs; assay type: cell-based; details: 24 h
Description: as §1, §2
All the bacterial strains were individually grown for 24 h at 35 or 27 °C for P. fluorescens, with shaking. After the incubation period, the cells were collected by centrifugation and re-suspended in sterile NB to obtain a stock culture of 10^9 CFU/mL. […]
as §5, §6

[4] = system: HDF cells; assay: Direct cytotoxicity test of IL powders, Alamar blue assay; assay type: cell-based, human; details: 24 h of incubation
Procedure: (§7) Cytotoxicity studies on IL powders were carried out using human dermal fibroblast (HDF) cells (Sigma-Aldrich) and a human breast cancer cell line (MCF7). In addition, ILs loaded in PVC polymer substrates were tested for their cytocompatibility and adhesion properties on the HDF. HDF cells were cultured in 75 cm^2 cell culture flask in Dulbecco’s Modified Eagle’s Medium (DMEM) supplemented with 20% Foetal Bovine Serum (FBS), 1% non-essential amino acid (NEAA), antibiotic solution (streptomycin 100 µg/mL and penicillin 100 U/mL, Sigma Aldrich) and 2 mM L-glutamine. MCF7 cells were grown in DMEM with 10% FBS and the same antibiotics as mentioned above. The cells were maintained in a culture at 37 °C, with 5% CO2 and 95% humidity to achieve a confluent layer. Control cells were cultured in a complete medium without any compounds in tissue culture plates. Before biological testing, the samples were sterilised using a UV light for 2 h.
(§8) A direct cytotoxicity test was used to assess the in vitro cytotoxicity of IL powders. IL powders with different alkyl chains were dissolved in DMEM media to obtain solutions at various concentrations (0.5–1–5 and 10 µg/mL) to determine the best formulation.
(§9) After 24 h of incubation of IL solutions (200 µL) with seeded cells under specific environmental conditions (T = 37 °C, HR = 95%, CO2 = 5%), cell viability was tested using the Alamar blue assay (AbD Serotec, Milan, Italy) following the manufacturer’s instructions.
(§10) In summary, each well received a 200 µL aliquot of Alamar Blue^TM diluted 1:10 in phenol red-free medium and was incubated for 4 h at 37 °C, 5% CO2. Following this, 100 µL of the solution was transferred to a 96-well plate for colorimetric analysis. Wells with no cells were included to account for any background interference from the redox indicator. Optical density was immediately measured using a spectrophotometer (Victor X3, Perkin Elmer, Waltham, MA, USA) at 560 and 595 nm wavelengths. The results were presented as a percentage of cell viability compared to that of the control (cells grown on tissue culture plates).
(§11) Here, the antitumor activity and cytotoxicity of the synthetised imidazolium-based ionic liquids have been determined for breast cancer cells (MCF-7) and healthy human fibroblast (HDF) cells. […] Table 5 reports the IC50 values in µg/mL and µM to make their comparison with the literature data easy.

[5] = system: MCF7 cancer cells; assay: as above; assay type: cell-based, human; details: 24 h of incubation
Procedure: as §7, §8, §9, §10, §11

[6] = NI = no inhibition at IL maximum concentration used (1000 µM), read-out: MBC
[7] = NI = no inhibition at IL maximum concentration used (1000 µM), read-out: MIC

MIC ([1]; 10^6 CFU/mL) | MIC ([2]; 10^6 CFU/mL) | Compound | MBC ([1]; 10^6 CFU/mL) | MBC [1, 6] | MIC [1, 7] | MBC ([2]; 10^6 CFU/mL) | MBC [2, 6] | MIC [2, 7] | MBC [3, 6] | MIC [3, 7] | IC50 ([4]; n = 3) | IC50 HDF ([4]; n = 3, mean ± SD) | IC50 MCF7 ([5]; n = 3) | IC50 ([5]; n = 3, mean ± SD) | MBC ([1]; 10^6 CFU/mL, read-out: MBC) | MIC ([1]; 10^6 CFU/mL, read-out: MIC) | MBC ([2]; 10^6 CFU/mL, read-out: MBC) | MIC ([2]; 10^6 CFU/mL, read-out: MIC) | IC50 ([5]; Homo sapiens, n = 3) | IC50 ([5]; Homo sapiens, n = 3, mean ± SD) | also measured
26.24 µg/mL | 13.12 µg/mL | CCCCCCCCCCCCn1cc[n+](C)c1.COC(=O)c1cc(C(=O)OC)cc(S(=O)(=O)[O-])c1 [C12mimDMSIP, 1-dodecyl-3-methylimidazolium 1,3-dimethyl-5-sulfoisophthalate] | 65.58 µg/mL | 125 µM | 50 µM | 26.24 µg/mL | 50 µM | 25 µM | 500 µM | 125 µM | 10.6 µM | 5.56 ± 0.04 µg/mL | 4.95 µg/mL | 9.44 µM | – | – | – | – | – | – | MBC ([3]; 10^6 CFU/mL): 262.33 µg/mL; MIC ([3]; 10^6 CFU/mL): 65.58 µg/mL
608.83 µg/mL | 304.4 µg/mL | CCCCCCCCCCCCCCCCCC[n+]1ccn(C)c1.COC(=O)c1cc(C(=O)OC)cc(S(=O)(=O)[O-])c1 [C18mimDMSIP] | 608.83 µg/mL | 1000 µM | 1000 µM | 304.4 µg/mL | 500 µM | 500 µM | – | – | 6.59 µM | 4.01 ± 0.14 µg/mL | 1.96 µg/mL | 3.22 µM | – | – | – | – | – | – | –
– | – | CCCCCCCCCCCCCCCC[n+]1ccn(C)c1.F[B-](F)(F)F [C16mimBF4] | – | 125 µM | 25 µM | – | 250 µM | 50 µM | 250 µM | 125 µM | – | – | – | – | 49.3 µg/mL | 9.86 µg/mL | 98.6 µg/mL | 19.7 µg/mL | 1.64 µg/mL | 4.16 µM | MBC ([3]; 10^6 CFU/mL, read-out: MBC): 98.6 µg/mL; MIC ([3]; 10^6 CFU/mL, read-out: MIC): 49.3 µg/mL; IC50 ([4]; Homo sapiens, n = 3): 20.9 µM; IC50 ([4]; Homo sapiens, n = 3, mean ± SD): 8.26 ± 0.03 µg/mL
– | – | CCCCCCCCCCCCn1cc[n+](C)c1.F[B-](F)(F)F [C12mimBF4, 1-dodecyl-3-methylimidazolium tetrafluoroborate] | – | 250 µM | 50 µM | – | 50 µM | 25 µM | 125 µM | 50 µM | – | – | – | – | 84.6 µg/mL | 16.9 µg/mL | 16.9 µg/mL | 8.46 µg/mL | 2.05 µg/mL | 6.06 µM | MBC ([3]; 10^6 CFU/mL, read-out: MBC): 42.3 µg/mL; MIC ([3]; 10^6 CFU/mL, read-out: MIC): 16.9 µg/mL; IC50 ([4]; Homo sapiens, n = 3): 12.8 µM; IC50 ([4]; Homo sapiens, n = 3, mean ± SD): 4.34 ± 0.01 µg/mL
124.16 µg/mL | 124.16 µg/mL | CCCCCCCCCC[n+]1ccn(C)c1.COC(=O)c1cc(C(=O)OC)cc(S(=O)(=O)[O-])c1 [C10mimDMSIP] | 248.31 µg/mL | 500 µM | 250 µM | 496.62 µg/mL | 1000 µM | 250 µM | 1000 µM | 500 µM | 11.2 µM | 5.56 ± 0.04 µg/mL | 5.42 µg/mL | 10.9 µM | – | – | – | – | – | – | MBC ([3]; 10^6 CFU/mL): 496.62 µg/mL; MIC ([3]; 10^6 CFU/mL): 248.31 µg/mL
72.60 µg/mL | 29.04 µg/mL | CCCCCCCCCCCCCCCC[n+]1ccn(C)c1.COC(=O)c1cc(C(=O)OC)cc(S(=O)(=O)[O-])c1 [C16mimDMSIP] | 72.60 µg/mL | 125 µM | 125 µM | 72.60 µg/mL | 125 µM | 50 µM | 250 µM | 250 µM | 9.57 µM | 5.56 ± 0.04 µg/mL | 3.84 µg/mL | 6.61 µM | – | – | – | – | – | – | MBC ([3]; 10^6 CFU/mL): 145.19 µg/mL; MIC ([3]; 10^6 CFU/mL): 145.19 µg/mL
13.82 µg/mL | 27.64 µg/mL | CCCCCCCCCCCCCC[n+]1ccn(C)c1.COC(=O)c1cc(C(=O)OC)cc(S(=O)(=O)[O-])c1 [C14mimDMSIP] | 27.64 µg/mL | 50 µM | 25 µM | 69.09 µg/mL | 125 µM | 50 µM | 125 µM | 50 µM | 10.1 µM | 5.56 ± 0.04 µg/mL | 2.91 µg/mL | 5.22 µM | – | – | – | – | – | – | MBC ([3]; 10^6 CFU/mL): 69.09 µg/mL; MIC ([3]; 10^6 CFU/mL): 27.64 µg/mL
– | – | CCCCCCCCCCCCCC[n+]1ccn(C)c1.F[B-](F)(F)F [C14mimBF4] | – | 25 µM | 12.5 µM | – | 12.5 µM | 12.5 µM | 125 µM | 25 µM | – | – | – | – | 9.16 µg/mL | 4.58 µg/mL | 4.58 µg/mL | 4.58 µg/mL | 4.41 µg/mL | 12.1 µM | MBC ([3]; 10^6 CFU/mL, read-out: MBC): 45.8 µg/mL; MIC ([3]; 10^6 CFU/mL, read-out: MIC): 9.16 µg/mL; IC50 ([4]; Homo sapiens, n = 3): 10.3 µM; IC50 ([4]; Homo sapiens, n = 3, mean ± SD): 3.78 ± 0.17 µg/mL
– | – | COc1cccc2c1C(=O)c1c(O)c3c(c(O)c1C2=O)C[C@@](O)(C(=O)CO)C[C@@H]3O[C@H]1C[C@H](N)[C@H](O)[C@H](C)O1 [Doxorubicin, reference compound] | – | – | – | – | – | – | – | – | – | – | – | – | – | – | – | – | 7.2 µg/mL | 13.2 µM | –
– | – | CCCCCCCCC[n+]1ccn(C)c1.F[B-](F)(F)F [C9mimBF4] | – | 1000 µM | 1000 µM | – | 500 µM | 500 µM | – | > 1000 µM | – | – | – | – | 296 µg/mL | 296 µg/mL | 148 µg/mL | 148 µg/mL | > 14.8 µg/mL | > 50 µM | IC50 ([4]; Homo sapiens, n = 3): 17.4 µM; IC50 ([4]; Homo sapiens, n = 3, mean ± SD): 5.14 ± 0.1 µg/mL
– | – | CCCCCCCCCCCCCCCCCC[n+]1ccn(C)c1.F[B-](F)(F)F [C18mimBF4] | – | 250 µM | 125 µM | – | 1000 µM | 500 µM | – | > 1000 µM | – | – | – | – | 106 µg/mL | 52.8 µg/mL | 422 µg/mL | 211 µg/mL | 1.95 µg/mL | 4.61 µM | IC50 ([4]; Homo sapiens, n = 3): 10.8 µM; IC50 ([4]; Homo sapiens, n = 3, mean ± SD): 4.57 ± 0.06 µg/mL
